# Biological target: T1, GABA A receptor α5β3γ2 (Homo sapiens, UniProt P18507+P31644)
# T1 construct: expressed in transfected cells; host or cells: HEK293 (transiently transfected for the human receptors)
# Experiment: [3H]flumazenil competition binding, human GABA A α5β3γ2 receptors expressed in HEK293 cells
# Conditions: not given
# Method: The affinity of compounds at GABA A receptor subtypes was measured by competition for [3H]flumazenil (85 Ci/mmol; Roche) binding to HEK293 cells expressing rat (stably transfected) or human (transiently transfected) receptors of composition α1β3γ2, α2β3γ2, α3β3γ2 and α5β3γ2.
# Cell pellets were suspended in Krebs-tris buffer (4.8 mM KCl, 1.2 mM CaCl2, 1.2 mM MgCl2, 120 mM NaCl, 15 mM Tris; pH 7.5; binding assay buffer), homogenized by polytron for ca. 20 sec on ice and centrifuged for 60 min at 4° C. (50000 g; Sorvall, rotor: SM24=20000 rpm). The cell pellets were resuspended in Krebs-tris buffer and homogenized by polytron for ca. 15 sec on ice. Protein was measured (Bradford method, Bio-Rad) and aliquots of 1 mL were prepared and stored at −80° C.
# Radioligand binding assays were carried out in a volume of […] (96-well plates) which contained […] of cell membranes, [3H]flumazenil at a concentration of 1 nM for α1, α2, α3 subunits and 0.5 nM for α5 subunits and the test compound in the range of […]. Nonspecific binding was defined by 10^−5 M diazepam and typically represented less than 5% of the total binding. Assays were incubated to equilibrium for 1 hour at 4° C. and harvested onto GF/C uni-filters (Packard) by filtration using a Packard harvester and washing with ice-cold wash buffer (50 mM Tris; pH 7.5). After drying, filter-retained radioactivity was detected by liquid scintillation counting. Ki values were calculated using Excel-Fit (Microsoft) and are the means of two determinations.
row,Structure (SMILES),Ki
1,"Cc1onc(-c2cccc(F)c2)c1C(=O)c1cn(C)c2cc(C(=O)NCCN3CCOCC3)ccc12 [Example 41, 3-[3-(3-Fluoro-phenyl)-5-methyl-isoxazole-4-carbonyl]-1-methyl-1H-indole-6-carboxylic acid(2-morpholin-4-yl-ethyl)-amide]",0.0249 µM
2,"Cc1onc(-c2cccc(F)c2)c1C(=O)c1cn(C)c2cc(C(=O)NCc3ccco3)ccc12 [Example 42, 3-[3-(3-Fluoro-phenyl)-5-methyl-isoxazole-4-carbonyl]-1-methyl-1H-indole-6-carboxylic acid(furan-2-ylmethyl)-amide]",0.0769 µM
3,"Cc1onc(-c2cccc(F)c2)c1C(=O)c1cn(C)c2cc(C(=O)NCC3CC3)ccc12 [Example 43, 3-[3-(3-Fluoro-phenyl)-5-methyl-isoxazole-4-carbonyl]-1-methyl-1H-indole-6-carboxylic acidcyclopropylmethyl-amide]",0.0667 µM
4,"C#CCNC(=O)c1ccc2c(C(=O)c3c(-c4cccc(F)c4)noc3C)cn(C)c2c1 [Example 44, 3-[3-(3-Fluoro-phenyl)-5-methyl-isoxazole-4-carbonyl]-1-methyl-1H-indole-6-carboxylic acidprop-2-ynylamide]",0.0383 µM
5,"Cc1onc(-c2cccc(F)c2)c1C(=O)c1cn(C)c2cc(C(=O)NC3CCOCC3)ccc12 [Example 45, 3-[3-(3-Fluoro-phenyl)-5-methyl-isoxazole-4-carbonyl]-1-methyl-1H-indole-6-carboxylic acid(tetrahydro-pyrann-4-yl)-amide]",0.049 µM
6,"Cc1onc(-c2cccc(F)c2)c1C(=O)c1cn(-c2ccccc2)c2cc(C(=O)NC3CCCC3)ccc12 [Example 51, 3-[3-(3-Fluoro-phenyl)-5-methyl-isoxazole-4-carbonyl]-1-phenyl-1H-indole-6-carboxylic acidcyclopentylamide]",0.0402 µM

# Same assay, conditions: Table 1; human α5, [3H]flumazenil, mean of two determinations; read-out: Ki h
row,Structure (SMILES),Ki
1,"CC(C)c1onc(-c2cccc(F)c2)c1C(=O)c1c[nH]c2cc(C(=O)NCc3ccco3)ccc12 [Example 36, 3-[3-(3-Fluoro-phenyl)-5-isopropyl-isoxazole-4-carbonyl]-1H-indole-6-carboxylicacid (furan-2-ylmethyl)-amide]",0.0454 µM
2,"C#CCNC(=O)c1ccc2c(C(=O)c3c(-c4cccc(F)c4)noc3C(C)C)c[nH]c2c1 [Example 38, 3-[3-(3-Fluoro-phenyl)-5-isopropyl-isoxazole-4-carbonyl]-1H-indole-6-carboxylicacid prop-2-ynylamide]",0.0315 µM
3,"CC(C)c1onc(-c2cccc(F)c2)c1C(=O)c1c[nH]c2cc(C(=O)NC3CCOCC3)ccc12 [Example 39, 3-[3-(3-Fluoro-phenyl)-5-isopropyl-isoxazole-4-carbonyl]-1H-indole-6-carboxylicacid (tetrahydro-pyran-4-yl)-amide]",0.0386 µM
4,"CC(C)c1onc(-c2cccc(F)c2)c1C(=O)c1c[nH]c2cc(C(=O)NC3CCCC3)ccc12 [Example 40, 3-[3-(3-Fluoro-phenyl)-5-isopropyl-isoxazole-4-carbonyl]-1H-indole-6-carboxylicacidcyclopentylamide]",0.0447 µM

# Results, then the compound that gave them:
row,Ki,Structure (SMILES)
1,0.0537 µM,"Cc1onc(-c2cccc(F)c2)c1C(=O)c1c[nH]c2cc(C(=O)NCC3CC3)ccc12 [Example 30, 3-[3-(3-Fluoro-phenyl)-5-methyl-isoxazole-4-carbonyl]-1H-indole-6-carboxylicacidcyclopropylmethyl-amide]"
2,0.0319 µM,"C#CCNC(=O)c1ccc2c(C(=O)c3c(-c4cccc(F)c4)noc3C)c[nH]c2c1 [Example 31, 3-[3-(3-Fluoro-phenyl)-5-methyl-isoxazole-4-carbonyl]-1H-indole-6-carboxylicacid prop-2-ynylamide]"
3,0.0418 µM,"Cc1onc(-c2cccc(F)c2)c1C(=O)c1c[nH]c2cc(C(=O)NC3CCOCC3)ccc12 [Example 32, 3-[3-(3-Fluoro-phenyl)-5-methyl-isoxazole-4-carbonyl]-1H-indole-6-carboxylicacid (tetrahydro-pyran-4-yl)-amide]"
4,0.0953 µM,"Cc1onc(-c2cccc(F)c2)c1C(=O)c1c[nH]c2cc(C(=O)NC3CCCC3)ccc12 [Example 33, 3-[3-(3-Fluoro-phenyl)-5-methyl-isoxazole-4-carbonyl]-1H-indole-6-carboxylicacidcyclopentylamide]"
5,0.059 µM,"Cc1onc(-c2cccc(F)c2)c1C(=O)c1c[nH]c2cc(C(=O)NC3CCC3)ccc12 [Example 34, 3-[3-(3-Fluoro-phenyl)-5-methyl-isoxazole-4-carbonyl]-1H-indole-6-carboxylicacidcyclobutylamide]"
6,0.038 µM,"Cc1onc(-c2cccc(F)c2)c1C(=O)c1c[nH]c2cc(C(=O)NC3CC3)ccc12 [Example 35, 3-[3-(3-Fluoro-phenyl)-5-methyl-isoxazole-4-carbonyl]-1H-indole-6-carboxylicacidcyclopropylamide]"
7,0.0393 µM,"CC(C)c1onc(-c2cccc(F)c2)c1C(=O)c1c[nH]c2cc(C(=O)NCC3CC3)ccc12 [Example 37, 3-[3-(3-Fluoro-phenyl)-5-isopropyl-isoxazole-4-carbonyl]-1H-indole-6-carboxylicacidcyclopropylmethyl-amide]"
8,0.111 µM,"Cc1onc(-c2cccc(F)c2)c1C(=O)c1cn(C)c2cc(C(=O)NC3CCCC3)ccc12 [Example 46, 3-[3-(3-Fluoro-phenyl)-5-methyl-isoxazole-4-carbonyl]-1-methyl-1H-indole-6-carboxylic acidcyclopentylamide]"
9,0.0253 µM,"Cc1onc(-c2cccc(F)c2)c1C(=O)c1cn(-c2ccccc2)c2cc(C(=O)NCc3ccco3)ccc12 [Example 47, 3-[3-(3-Fluoro-phenyl)-5-methyl-isoxazole-4-carbonyl]-1-phenyl-1H-indole-6-carboxylic acid(furan-2-ylmethyl)-amide]"
10,0.0138 µM,"Cc1onc(-c2cccc(F)c2)c1C(=O)c1cn(-c2ccccc2)c2cc(C(=O)NCC3CC3)ccc12 [Example 48, 3-[3-(3-Fluoro-phenyl)-5-methyl-isoxazole-4-carbonyl]-1-phenyl-1H-indole-6-carboxylic acidcyclopropylmethyl-amide]"
11,0.0085 µM,"C#CCNC(=O)c1ccc2c(C(=O)c3c(-c4cccc(F)c4)noc3C)cn(-c3ccccc3)c2c1 [Example 49, 3-[3-(3-Fluoro-phenyl)-5-methyl-isoxazole-4-carbonyl]-1-phenyl-1H-indole-6-carboxylic acidprop-2-ynylamide]"
12,0.0098 µM,"Cc1onc(-c2cccc(F)c2)c1C(=O)c1cn(-c2ccccc2)c2cc(C(=O)NC3CCOCC3)ccc12 [Example 50, 3-[3-(3-Fluoro-phenyl)-5-methyl-isoxazole-4-carbonyl]-1-phenyl-1H-indole-6-carboxylic acid(tetrahydro-pyran-4-yl)-amide]"

# Same assay, conditions: human α5β3γ2, 0.5 nM [3H]flumazenil, mean of two determinations; read-out: Ki[μM] hα5
row,Ki,Structure (SMILES)
1,0.0085 µM,"C#CCNC(=O)c1ccc2c(C(=O)c3c(-c4cccc(F)c4)noc3C)cn(-c3ccccc3)c2c1 [Example 49, 3-[3-(3-Fluoro-phenyl)-5-methyl-isoxazole-4-carbonyl]-1-phenyl-1H-indole-6-carboxylic acidprop-2-ynylamide]"
2,0.0098 µM,"Cc1onc(-c2cccc(F)c2)c1C(=O)c1cn(-c2ccccc2)c2cc(C(=O)NC3CCOCC3)ccc12 [Example 50, 3-[3-(3-Fluoro-phenyl)-5-methyl-isoxazole-4-carbonyl]-1-phenyl-1H-indole-6-carboxylic acid(tetrahydro-pyran-4-yl)-amide]"
